Experiments:
Assay type in all cases: cell-based
[1] = target: NMDARs in cultured hippocampal neurons (Rattus norvegicus, UniProt P35439+Q00959); assay: Whole-cell voltage clamp recordings of NMDAR currents in cultured hippocampal/cortical neurons; conditions: for Potentiation or depression of NMDAR-currents: tested in a similar fashion as Npam02, FIG. 4c
[2] = target: T1, GluN2A NMDARs in GluN2B-lacking neurons (Mus musculus, UniProt P35436+P35438); assay: Whole-cell recordings in GluN2B-knockout cortical neurons; conditions: 0.2 μM with NMDA 20 μM; conditional GluN2B-knockout neurons
T1 construct: endogenous in cells; host or cells: primary cortical neurons from GluN2B-knockout mouse embryos

GluN1/GluN2A NMDARs = target: T2, GluN1/GluN2A NMDARs (Rattus norvegicus, UniProt P35439+Q00959); assay: Whole-cell patch clamp recordings in HEK293 cells transfected with GluN1/GluN2A; conditions: for Normalized Potentiation: Table 1, positive modulation of GluN1/GluN2A NMDARs, concentration not given
T2 construct: expressed in transfected cells; host or cells: HEK293
Procedure: Cells were transfected with a combination of pcDNA3-CMV expression vectors, each of which expressed one of the rat recombinant (GluN2AWT, GluN1WT, GluN2BWT) subunits. The sequences of all plasmids were confirmed by automated DNA sequencing. Human Embryonic Kidney 293 (HEK293 cells) were cultured in Dulbecco's Modified Eagle's Medium (DMEM) (Invitrogen) supplemented with 10% fetal bovine serum (FBS). When HEK293 cells achieved 90% confluence, plasmids of either GluN1 & GluN2A or GluN1 & GluN2B were co-transfected into the cells using Lipofectamine 2000 (Invitrogen, 11668019) according to manufacturer's instructions. HEK293 cells were then maintained in the 37° C. incubator with […] and 5% CO2 for 48 hrs before being used in experiments. The transfection ratios for the NMDAR subunit combinations were all 1:1 (GluN1/GluN2A or GluN1/GluN2B).
Whole cell patch-clamp recordings were performed under voltage-clamp mode using an Axopatch 200B or 1D patch-clamp amplifier (Molecular Devices). Whole-cell currents were recorded at a holding potential of −60 mV unless indicated elsewhere, and signals were filtered at 2 kHz, digitized at 10 kHz (Digidata 1322A). Recording pipettes (3-5 MΩ) were filled with intracellular solution containing (mM): CsCl 140, HEPES 10, Mg-ATP 4, QX-314 5, pH 7.20; osmolarity, 290-295 mOsm. BAPTA (10 mM) was added in the intracellular solution (unless otherwise specified). The coverslips were continuously superfused with extracellular solution containing (mM): NaCl 140, KCl 5.4, HEPES 10, CaCl2 1.3, glucose 20, pH 7.4; osmolarity, 305-315 mOsm. NMDA-induced currents were applied by NMDA through perfusion fast-step (Warner Instruments). With perfusion fast-step system, NMDA application was achieved by using a two-square barrel glass tubing and depending on the age of the cultured neurons, CNQX (10 μM), TTX (0.5 μM) or BIC (10 μM) were added in the extracellular solution to minimize the activation of ionotropic glutamate receptors and voltage-gated sodium channels, respectively. All experiments were performed at room temperature. Recordings from at least six HEK293 cells/neurons were performed for all active compounds. Data were pooled among HEK293 cells or primary neurons and composite dose-response data were fitted by the equation Percentage Response=100×Relative Efficacy/[1+(EC50/Concentration)nH], where EC50 is the concentration of agonist that produces a half-maximal response, relative efficacy is the response at maximally effective concentration relative to the maximal response of glutamate, and nH is the Hill slope.
GluN1/GluN2A NMDAR subtypes are an attractive target for positive allosteric modulation. The present inventors employed in silico computational drug discovery methods to conduct a virtual screen of purchasable lead-like compounds from the ZINC database (Irwin, J., et al. Abstr Pap Am Chem Soc (2005) 230:U1009) and some synthetic compounds to identify potential GluN1/GluN2A-NMDAR modulators. The in silico methods included large-scale docking against the interstice interface of the GluN1/GluN2A heterodimer and consensus scoring to select compounds for empirical testing. Candidate compounds were further screened by using GluN1/GluN2A transiently transfected in human embryonic kidney (HEK293) cells and tested by whole-cell patch clamp recordings.
The inventors used transiently transfected HEK293 cells expressing either GluN1/GluN2A or GluN1/GluN2B NMDARs and tested by whole-cell voltage patch clamp recordings to see whether selected compounds were controlling the subtype selectivity profile of the drugs.
Whole-cell patch clamp recordings were performed to measure glutamate evoked currents with chloride-based pipette solutions at a holding potential of −60 mV.

GluN1/GluN2B NMDARs = target: T3, GluN1/GluN2B NMDARs (Rattus norvegicus, UniProt P35439+Q00960); assay: Whole-cell patch clamp recordings in HEK293 cells transfected with GluN1/GluN2B; conditions: HEK293, Table 2, read-out: Normalized Potentiation GluN1/GluN2B
T3 construct: expressed in transfected cells; host or cells: HEK293

[3] = HEK293, Table 2, read-out: Normalized Potentiation GluN1/GluN2A

T2 sequence (Q00959 23-1464, other chains not shown): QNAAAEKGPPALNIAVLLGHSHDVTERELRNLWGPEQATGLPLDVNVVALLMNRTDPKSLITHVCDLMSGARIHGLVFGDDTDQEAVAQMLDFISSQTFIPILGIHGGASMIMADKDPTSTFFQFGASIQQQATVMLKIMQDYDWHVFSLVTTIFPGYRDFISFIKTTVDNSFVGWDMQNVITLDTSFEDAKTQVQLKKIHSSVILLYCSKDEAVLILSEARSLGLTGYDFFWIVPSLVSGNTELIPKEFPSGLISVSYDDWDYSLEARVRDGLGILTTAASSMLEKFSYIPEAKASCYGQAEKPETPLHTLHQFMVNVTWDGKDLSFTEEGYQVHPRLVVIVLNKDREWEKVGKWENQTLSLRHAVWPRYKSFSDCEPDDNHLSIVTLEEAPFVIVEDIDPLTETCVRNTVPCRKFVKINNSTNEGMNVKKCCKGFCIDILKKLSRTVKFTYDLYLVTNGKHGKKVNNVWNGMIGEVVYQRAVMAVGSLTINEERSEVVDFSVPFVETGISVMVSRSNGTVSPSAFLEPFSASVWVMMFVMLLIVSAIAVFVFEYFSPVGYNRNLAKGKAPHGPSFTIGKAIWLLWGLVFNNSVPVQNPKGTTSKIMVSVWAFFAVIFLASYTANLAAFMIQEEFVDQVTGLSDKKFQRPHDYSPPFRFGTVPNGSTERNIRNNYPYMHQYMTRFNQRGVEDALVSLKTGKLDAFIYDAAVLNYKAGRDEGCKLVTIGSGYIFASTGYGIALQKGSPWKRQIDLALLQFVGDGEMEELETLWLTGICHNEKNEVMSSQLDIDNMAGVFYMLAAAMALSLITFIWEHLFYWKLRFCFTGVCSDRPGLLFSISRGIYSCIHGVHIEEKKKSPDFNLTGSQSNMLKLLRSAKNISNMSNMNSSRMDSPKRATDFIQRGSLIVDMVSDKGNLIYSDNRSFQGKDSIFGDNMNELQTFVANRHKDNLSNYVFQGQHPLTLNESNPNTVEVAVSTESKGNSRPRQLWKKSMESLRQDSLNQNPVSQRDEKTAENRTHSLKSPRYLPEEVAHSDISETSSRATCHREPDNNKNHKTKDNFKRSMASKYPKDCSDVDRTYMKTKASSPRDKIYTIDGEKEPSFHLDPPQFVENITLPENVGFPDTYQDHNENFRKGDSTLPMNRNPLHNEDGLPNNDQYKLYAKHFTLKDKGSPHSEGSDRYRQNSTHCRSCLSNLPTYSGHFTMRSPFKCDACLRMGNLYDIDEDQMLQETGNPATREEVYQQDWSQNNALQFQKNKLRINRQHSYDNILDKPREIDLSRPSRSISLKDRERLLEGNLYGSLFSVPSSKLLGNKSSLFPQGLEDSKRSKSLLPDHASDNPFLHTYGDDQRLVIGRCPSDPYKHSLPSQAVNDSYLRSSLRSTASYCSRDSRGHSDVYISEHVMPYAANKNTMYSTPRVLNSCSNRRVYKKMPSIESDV
Chain of NMDARs in cultured hippocampal neurons (Q00959 23-1464, other chains not shown): as above
T3 sequence (Q00960 27-1482, other chains not shown): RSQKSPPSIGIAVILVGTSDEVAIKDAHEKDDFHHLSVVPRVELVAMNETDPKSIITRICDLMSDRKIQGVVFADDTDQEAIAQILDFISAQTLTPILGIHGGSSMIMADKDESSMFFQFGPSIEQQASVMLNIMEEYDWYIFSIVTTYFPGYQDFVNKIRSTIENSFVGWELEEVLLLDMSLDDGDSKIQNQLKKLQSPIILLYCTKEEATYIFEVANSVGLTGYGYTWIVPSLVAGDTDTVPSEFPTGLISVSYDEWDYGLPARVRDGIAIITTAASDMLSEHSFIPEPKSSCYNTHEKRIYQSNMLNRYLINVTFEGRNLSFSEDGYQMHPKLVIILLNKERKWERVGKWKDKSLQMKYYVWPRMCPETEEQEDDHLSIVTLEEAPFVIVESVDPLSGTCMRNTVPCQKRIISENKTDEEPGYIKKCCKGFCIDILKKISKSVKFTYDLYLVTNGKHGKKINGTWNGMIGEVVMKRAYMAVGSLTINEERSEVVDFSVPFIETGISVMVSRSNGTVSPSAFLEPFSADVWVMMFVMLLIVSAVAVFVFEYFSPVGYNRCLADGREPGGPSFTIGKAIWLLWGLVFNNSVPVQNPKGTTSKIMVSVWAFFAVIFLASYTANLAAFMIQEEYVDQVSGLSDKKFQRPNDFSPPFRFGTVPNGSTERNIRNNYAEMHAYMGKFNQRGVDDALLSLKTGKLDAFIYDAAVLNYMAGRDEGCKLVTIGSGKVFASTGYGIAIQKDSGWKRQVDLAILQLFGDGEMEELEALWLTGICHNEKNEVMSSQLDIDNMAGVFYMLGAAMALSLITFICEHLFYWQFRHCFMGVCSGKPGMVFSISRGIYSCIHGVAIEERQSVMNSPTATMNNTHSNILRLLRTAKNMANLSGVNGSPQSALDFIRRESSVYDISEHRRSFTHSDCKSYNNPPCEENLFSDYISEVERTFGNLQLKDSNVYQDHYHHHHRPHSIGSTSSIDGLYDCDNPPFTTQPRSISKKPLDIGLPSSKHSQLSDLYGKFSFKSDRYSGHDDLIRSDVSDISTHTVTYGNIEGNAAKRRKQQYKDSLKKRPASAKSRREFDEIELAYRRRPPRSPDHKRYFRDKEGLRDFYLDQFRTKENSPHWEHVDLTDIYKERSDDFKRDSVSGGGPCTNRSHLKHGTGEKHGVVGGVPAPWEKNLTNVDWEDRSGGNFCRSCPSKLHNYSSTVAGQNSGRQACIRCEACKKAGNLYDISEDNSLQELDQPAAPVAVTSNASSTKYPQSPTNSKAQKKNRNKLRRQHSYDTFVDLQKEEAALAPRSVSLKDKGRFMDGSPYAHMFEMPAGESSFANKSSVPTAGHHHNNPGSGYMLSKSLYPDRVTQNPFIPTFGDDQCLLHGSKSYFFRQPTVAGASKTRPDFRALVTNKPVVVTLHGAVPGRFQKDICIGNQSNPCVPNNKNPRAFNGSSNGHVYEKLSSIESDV

CN[C@H](CC(=O)O)C(=O)O [NMDA, reference compound] was tested, and the “pEC50 of NMDA dose-response curve” value ([1]; cultured hippocampal neurons, FIG. 13) was 1.484±0.082 μM and the EC50 ([1]; cultured hippocampal neurons, FIG. 13, read-out: EC50 of NMDA dose-response curve) was 30.5 ± 11.7 µM.
In the case of C[C@H](NC(c1cccc2[nH]c(=O)c(=O)[nH]c12)P(=O)(O)O)c1ccc(Br)cc1 (some centres unmarked) [NVP-AAM007, reference compound], the “Block of NMDAR-currents” value [2] is reported as 90.73±1.11% and the “Block of the Npam02-increased NMDAR currents” value (GluN1/GluN2A NMDARs; 0.2 μM co-applied with both co-agonists) is reported as “completely blocked”.
With N[C@@H](CCCP(=O)(O)O)C(=O)O [APV, reference compound] the Block of currents ([1]; 50 μM) was “blocked all currents”.
For O=C(N/N=C/c1cccc(O)c1O)c1ccccc1 [Npam01, (E)-N′-(2,3-dihydroxybenzylidene)benzohydrazide], the activation at 100 µM (GluN1/GluN2B NMDARs) was -28 ± 5.11%, the activation at 100 µM (GluN1/GluN2A NMDARs; [3]) was 26.2 ± 2.24% and the “Normalized Potentiation” value (GluN1/GluN2A NMDARs) was 2.61 ± 9.69%. The “Potentiation or depression of NMDAR-currents” value [1] was “no observable potentiation or depression effect”.
Cc1ccccc1C(=O)N/N=C/c1cccc(O)c1O [Npam04, (E)-N′-(2,3-dihydroxybenzylidene)-2-methylbenzohydrazide] was tested, and the activation at 100 µM (GluN1/GluN2B NMDARs) was -54.6 ± 5.48%, the activation at 100 µM (GluN1/GluN2A NMDARs; [3]) was 33.7 ± 4.84% and the “Potentiation or depression of NMDAR-currents” value [1] was “no observable potentiation or depression effect”.
For O=C(N/N=C/c1cccc(O)c1O)c1cccc(I)c1 [Npam30, (E)-N′-(2,3-dihydroxybenzylidene)-3-iodobenzohydrazide], the activation at 100 µM (GluN1/GluN2B NMDARs) was -100 ± 2.83%, the activation at 100 µM (GluN1/GluN2A NMDARs; [3]) was 52.7 ± 4.87% and the “Normalized Potentiation” value (GluN1/GluN2A NMDARs) was 3.99 ± 4.92%.
For COc1cccc(/C=N/NC(=O)c2ccccc2)c1O [Npam69, (E)-N′-(2-hydroxy-3-methoxybenzylidene)benzohydrazide], the activation at 50 µM (GluN1/GluN2B NMDARs; 50 μM (footnote *)) was -34 ± 2.47% and the activation at 50 µM (GluN1/GluN2A NMDARs; HEK293, Table 2, 50 μM (footnote *), read-out: Normalized Potentiation GluN1/GluN2A) was 11.1 ± 1.98%.

— patent US11166924B2, “N-methyl-d-aspartate receptor allosteric modulators and methods for their use” (Qingdao Primedicine Pharmaceutical Company, Ltd., priority 2016, dated 2021)
